From patent publication US11643419B2, “Compositions and methods for the treatment of xerostomia” (Cellix Bio Private Limited, priority 2016, dated 2023)
Values after ≈ are worked out from the molar mass of the structure shown. Where two headings read alike, the source gives them in different places.

Key:
[1] = system: oral pathogenic microorganisms; settings: cited from earlier work; for antimicrobial activity (in words): among long-chain fatty acids / against various oral microorganisms
C. albicans = settings: cited from earlier work
Candida Species [2] = experiment: MIC against Candida Species; type: cell-based; settings: printed conversion of 0.45 μmoles/ml
Candida Species [3] = settings: cited from earlier work

Structure (SMILES): CCCCC/C=C\C/C=C\C/C=C\C/C=C\CCCC(=O)O [arachidonic acid]
- antimicrobial activity (in words) [1]: greatest antimicrobial activity

Structure (SMILES): CCCCCCCCCCCCCCCC(=O)O [palmitic acid]
- antimicrobial activity (in words) [1]: greatest antimicrobial activity

Structure (SMILES): CCCCC/C=C\C/C=C\C/C=C\CCCCC(=O)O [GLA, gamma linoleic acid]
- antimicrobial activity (in words) [1]: antimicrobial activities
- antimicrobial activity (in words) ([1]; listed as 7-linoleic acid): greatest antimicrobial activity
- antimicrobial activity (in words) ([1]; listed as gamma linoleic acid): significant anti-microbial activity
- bactericidal at a concentration of ([1]; n-6 fatty acids GLA): 25 µg/mL

Structure (SMILES): CCCCCC/C=C\CCCCCCCC(=O)O [palmitoleic acid]
- antimicrobial activity (in words) [1]: greatest antimicrobial activity

Structure (SMILES): CCCCC/C=C\C/C=C\CCCCCCCC(=O)O [Linoleic acid]
- activity against C. albicans (C. albicans): < 40%
- antimicrobial activity (in words) [1]: greatest antimicrobial activity
- bactericidal at a concentration of ([1]; linoleic acid): 25 µg/mL
- MIC (Candida Species [2]): 0.13 µg/mL (≈ 0.464 µM)
- MIC (Candida Species [3]): 0.45 µmol/mL (≈ 126 µg/mL)
